Assay results from patent US20090175842A1, “DIETARY ANTI-BACTERIAL COMPOSITIONS” (priority 2006, published 2009).

Test system: H. pylori clinical isolate 1735 (HP-1735)
Experiment: Antibacterial sensitivity / zone of growth inhibition by well/disc diffusion method
Assay type: cell-based, Helicobacter pylori
Settings: for zone of growth inhibition: clinical isolate 1735; for Antibiotic susceptibility (disc diffusion): strain HP-1735
[1] = antibiotic concentration 30 µg/disk

Row | Structure (SMILES) | zone of growth inhibition [1] | Antibiotic susceptibility (disc diffusion) (amoxicillin criterion) | zone of growth inhibition compared with dietary antibacterial composition (H. pylori clinical isolate 1735) | zone of growth inhibition (antibiotic concentration 15 µg/disk) | Antibiotic susceptibility (disc diffusion) (clarithromycin and tetracycline criterion)
1 | CC1(C)S[C@@H]2[C@H](NC(=O)[C@H](N)c3ccc(O)cc3)C(=O)N2[C@H]1C(=O)O [AMO, Amoxicillin] | 50 mm | sensitive |  |  | 
2 | CN(C)[C@@H]1C(O)=C(C(N)=O)C(=O)[C@@]2(O)C(O)=C3C(=O)c4c(O)cccc4[C@@](C)(O)[C@H]3C[C@@H]12 [TET, Tetracycline] | 45 mm |  |  |  | 
3 | CC[C@H]1OC(=O)[C@H](C)[C@@H](O[C@H]2C[C@@](C)(OC)[C@@H](O)[C@H](C)O2)[C@H](C)[C@@H](O[C@@H]2O[C@H](C)C[C@H](N(C)C)[C@H]2O)[C@](C)(OC)C[C@@H](C)C(=O)[C@H](C)[C@@H](O)[C@]1(C)O [CLA, Clarithromycin] |  |  | less zone of growth inhibition | 8 mm | resistant (≦30 mm for clarithromycin and tetracycline)
